From patent US10479786B2, “Protein kinase inhibitors” (Princeton Drug Discovery Inc, priority 2016, dated 2019)

Experiments:
BLK = target: T1, BLK (Homo sapiens, UniProt P51451); assay: Off-chip Mobility Shift Assay, kinase inhibition; type: biochemical; conditions: at 10 nM; recombinant BLK
T1 construct: purchased Carna Biosciences, Inc

TEC = target: T2, TEC (Homo sapiens, UniProt P42680); assay: Off-chip Mobility Shift Assay, kinase inhibition; type: biochemical; conditions: at 1 nM; recombinant TEC
T2 construct: purchased Carna Biosciences, Inc
T2 sequence (P42680 1-631): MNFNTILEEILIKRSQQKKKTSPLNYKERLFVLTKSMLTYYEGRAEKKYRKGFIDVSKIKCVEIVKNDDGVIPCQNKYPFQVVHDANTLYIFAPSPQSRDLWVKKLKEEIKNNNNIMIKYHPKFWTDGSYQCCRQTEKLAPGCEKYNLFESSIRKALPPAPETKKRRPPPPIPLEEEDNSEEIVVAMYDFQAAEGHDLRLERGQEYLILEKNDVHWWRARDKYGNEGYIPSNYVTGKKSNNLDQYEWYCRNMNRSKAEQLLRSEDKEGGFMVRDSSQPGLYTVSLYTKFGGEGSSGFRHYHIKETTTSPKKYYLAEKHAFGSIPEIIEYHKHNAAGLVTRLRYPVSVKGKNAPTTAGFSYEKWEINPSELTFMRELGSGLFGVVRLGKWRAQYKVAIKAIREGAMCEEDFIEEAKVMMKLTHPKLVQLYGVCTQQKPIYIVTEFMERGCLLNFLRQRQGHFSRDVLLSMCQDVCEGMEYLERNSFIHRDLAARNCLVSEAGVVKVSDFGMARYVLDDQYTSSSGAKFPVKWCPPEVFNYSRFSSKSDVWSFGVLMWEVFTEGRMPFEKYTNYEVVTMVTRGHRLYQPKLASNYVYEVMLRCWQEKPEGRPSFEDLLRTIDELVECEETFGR

BMX = target: T3, BMX (Homo sapiens, UniProt P51813); assay: Off-chip Mobility Shift Assay, kinase inhibition; type: biochemical; conditions: recombinant BMX; for inhibition at 0.001 µM: at 1 nM; for inhibition at 0.01 µM: at 10 nM
T3 construct: purchased Carna Biosciences, Inc
T3 sequence (P51813 1-675): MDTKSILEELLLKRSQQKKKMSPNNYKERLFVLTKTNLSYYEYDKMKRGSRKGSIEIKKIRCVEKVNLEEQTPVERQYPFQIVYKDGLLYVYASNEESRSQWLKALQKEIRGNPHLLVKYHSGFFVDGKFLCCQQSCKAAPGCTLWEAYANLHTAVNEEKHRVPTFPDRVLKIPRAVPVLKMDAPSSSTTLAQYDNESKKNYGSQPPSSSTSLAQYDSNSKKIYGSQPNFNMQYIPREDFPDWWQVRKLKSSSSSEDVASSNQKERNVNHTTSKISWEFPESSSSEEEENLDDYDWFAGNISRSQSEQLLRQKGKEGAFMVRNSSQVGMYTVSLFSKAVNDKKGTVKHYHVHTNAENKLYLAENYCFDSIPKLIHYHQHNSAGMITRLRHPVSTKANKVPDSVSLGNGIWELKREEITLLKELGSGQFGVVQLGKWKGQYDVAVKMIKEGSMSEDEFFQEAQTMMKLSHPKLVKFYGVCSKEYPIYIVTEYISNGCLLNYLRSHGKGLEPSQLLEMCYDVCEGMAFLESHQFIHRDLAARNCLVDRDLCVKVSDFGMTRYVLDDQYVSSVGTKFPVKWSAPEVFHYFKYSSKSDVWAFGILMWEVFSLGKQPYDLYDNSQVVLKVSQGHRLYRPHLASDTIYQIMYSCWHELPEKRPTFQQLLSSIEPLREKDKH

FYN(isoform a) = target: T4, FYN(isoform a) (Homo sapiens, UniProt P06241); assay: Off-chip Mobility Shift Assay, kinase inhibition; type: biochemical; conditions: at 10 nM; recombinant FYN(isoform a)
T4 construct: purchased Carna Biosciences, Inc
T4 sequence (P06241 whole entry, canonical isoform): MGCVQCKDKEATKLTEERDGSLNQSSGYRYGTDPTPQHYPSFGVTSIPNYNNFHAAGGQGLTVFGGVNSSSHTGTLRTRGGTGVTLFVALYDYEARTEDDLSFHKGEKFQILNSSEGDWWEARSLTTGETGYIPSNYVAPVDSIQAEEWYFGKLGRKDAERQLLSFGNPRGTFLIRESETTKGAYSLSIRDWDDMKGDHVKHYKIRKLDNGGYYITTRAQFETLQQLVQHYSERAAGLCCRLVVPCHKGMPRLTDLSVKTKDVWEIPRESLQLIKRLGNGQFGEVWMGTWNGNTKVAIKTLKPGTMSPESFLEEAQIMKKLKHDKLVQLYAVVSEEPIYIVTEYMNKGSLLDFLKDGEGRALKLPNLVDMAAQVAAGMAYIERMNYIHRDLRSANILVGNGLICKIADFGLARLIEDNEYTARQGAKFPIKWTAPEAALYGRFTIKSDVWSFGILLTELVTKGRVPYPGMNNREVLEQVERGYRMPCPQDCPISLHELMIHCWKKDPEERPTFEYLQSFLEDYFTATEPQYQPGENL

PDGFRα = target: T5, PDGFRα (Homo sapiens, UniProt P16234); assay: Off-chip Mobility Shift Assay, kinase inhibition; type: biochemical; conditions: at 10 nM; recombinant PDGFRα; read-out: inhibition
T5 construct: purchased Carna Biosciences, Inc
T5 sequence (P16234 24-1089): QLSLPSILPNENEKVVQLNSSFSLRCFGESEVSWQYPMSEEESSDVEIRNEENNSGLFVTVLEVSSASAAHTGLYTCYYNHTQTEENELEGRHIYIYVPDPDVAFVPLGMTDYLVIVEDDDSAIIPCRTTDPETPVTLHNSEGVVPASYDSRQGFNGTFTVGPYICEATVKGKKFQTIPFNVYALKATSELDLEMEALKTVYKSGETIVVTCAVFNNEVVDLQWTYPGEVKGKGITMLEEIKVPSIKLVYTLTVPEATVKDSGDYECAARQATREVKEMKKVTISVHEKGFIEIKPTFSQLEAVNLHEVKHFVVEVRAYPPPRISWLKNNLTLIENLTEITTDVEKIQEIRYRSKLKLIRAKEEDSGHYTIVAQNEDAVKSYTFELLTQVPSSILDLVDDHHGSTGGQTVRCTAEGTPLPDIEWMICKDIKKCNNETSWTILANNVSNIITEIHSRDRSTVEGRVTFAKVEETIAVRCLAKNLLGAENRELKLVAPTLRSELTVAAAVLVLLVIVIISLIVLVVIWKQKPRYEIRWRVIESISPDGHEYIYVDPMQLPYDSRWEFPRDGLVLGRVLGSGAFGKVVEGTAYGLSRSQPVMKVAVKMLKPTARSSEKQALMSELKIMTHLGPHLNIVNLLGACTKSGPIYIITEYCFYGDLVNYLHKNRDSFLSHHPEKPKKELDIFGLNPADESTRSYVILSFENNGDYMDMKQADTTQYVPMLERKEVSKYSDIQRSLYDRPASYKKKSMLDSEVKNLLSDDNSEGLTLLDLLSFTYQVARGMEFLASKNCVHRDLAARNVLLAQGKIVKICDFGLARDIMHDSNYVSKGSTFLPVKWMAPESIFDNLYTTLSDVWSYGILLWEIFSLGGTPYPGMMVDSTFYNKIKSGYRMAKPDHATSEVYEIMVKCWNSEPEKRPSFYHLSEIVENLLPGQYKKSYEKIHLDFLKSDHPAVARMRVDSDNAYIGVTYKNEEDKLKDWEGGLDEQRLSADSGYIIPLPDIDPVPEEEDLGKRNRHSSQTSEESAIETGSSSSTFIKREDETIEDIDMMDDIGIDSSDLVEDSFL

PIK3CA/PIK3R1 = target: T6, PIK3CA/PIK3R1 (Homo sapiens, UniProt P42336); assay: Off-chip Mobility Shift Assay, kinase inhibition; type: biochemical; conditions: at 10 nM; recombinant PIK3CA/PIK3R1
T6 construct: purchased Carna Biosciences, Inc
T6 sequence (P42336 whole entry): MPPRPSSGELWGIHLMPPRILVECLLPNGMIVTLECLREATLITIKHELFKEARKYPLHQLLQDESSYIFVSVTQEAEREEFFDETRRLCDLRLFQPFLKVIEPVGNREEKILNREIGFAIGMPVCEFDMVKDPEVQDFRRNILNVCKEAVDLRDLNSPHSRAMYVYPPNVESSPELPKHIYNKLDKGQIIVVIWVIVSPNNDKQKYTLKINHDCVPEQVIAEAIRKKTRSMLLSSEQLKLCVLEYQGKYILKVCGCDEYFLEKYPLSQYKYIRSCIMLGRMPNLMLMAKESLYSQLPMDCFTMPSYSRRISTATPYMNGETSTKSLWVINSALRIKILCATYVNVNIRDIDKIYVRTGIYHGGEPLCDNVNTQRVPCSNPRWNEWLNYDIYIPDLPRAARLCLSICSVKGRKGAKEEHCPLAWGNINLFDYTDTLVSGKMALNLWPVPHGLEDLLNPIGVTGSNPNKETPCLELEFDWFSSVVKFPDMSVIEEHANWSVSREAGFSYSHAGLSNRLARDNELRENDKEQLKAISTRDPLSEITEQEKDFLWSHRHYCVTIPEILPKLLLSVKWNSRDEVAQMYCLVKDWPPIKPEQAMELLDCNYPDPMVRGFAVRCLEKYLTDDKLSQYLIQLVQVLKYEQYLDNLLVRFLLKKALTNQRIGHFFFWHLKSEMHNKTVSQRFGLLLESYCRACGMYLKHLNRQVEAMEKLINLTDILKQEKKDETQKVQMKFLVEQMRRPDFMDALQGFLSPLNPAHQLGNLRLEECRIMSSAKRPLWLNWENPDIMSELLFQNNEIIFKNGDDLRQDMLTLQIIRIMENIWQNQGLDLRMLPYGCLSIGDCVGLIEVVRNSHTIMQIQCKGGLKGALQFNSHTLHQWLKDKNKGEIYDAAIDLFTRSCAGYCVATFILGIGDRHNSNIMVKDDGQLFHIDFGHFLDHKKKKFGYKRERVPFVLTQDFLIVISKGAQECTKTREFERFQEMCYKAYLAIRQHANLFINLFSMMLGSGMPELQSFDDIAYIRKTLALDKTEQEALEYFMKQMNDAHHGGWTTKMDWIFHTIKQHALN
T6 sequence (P27986 whole entry partner): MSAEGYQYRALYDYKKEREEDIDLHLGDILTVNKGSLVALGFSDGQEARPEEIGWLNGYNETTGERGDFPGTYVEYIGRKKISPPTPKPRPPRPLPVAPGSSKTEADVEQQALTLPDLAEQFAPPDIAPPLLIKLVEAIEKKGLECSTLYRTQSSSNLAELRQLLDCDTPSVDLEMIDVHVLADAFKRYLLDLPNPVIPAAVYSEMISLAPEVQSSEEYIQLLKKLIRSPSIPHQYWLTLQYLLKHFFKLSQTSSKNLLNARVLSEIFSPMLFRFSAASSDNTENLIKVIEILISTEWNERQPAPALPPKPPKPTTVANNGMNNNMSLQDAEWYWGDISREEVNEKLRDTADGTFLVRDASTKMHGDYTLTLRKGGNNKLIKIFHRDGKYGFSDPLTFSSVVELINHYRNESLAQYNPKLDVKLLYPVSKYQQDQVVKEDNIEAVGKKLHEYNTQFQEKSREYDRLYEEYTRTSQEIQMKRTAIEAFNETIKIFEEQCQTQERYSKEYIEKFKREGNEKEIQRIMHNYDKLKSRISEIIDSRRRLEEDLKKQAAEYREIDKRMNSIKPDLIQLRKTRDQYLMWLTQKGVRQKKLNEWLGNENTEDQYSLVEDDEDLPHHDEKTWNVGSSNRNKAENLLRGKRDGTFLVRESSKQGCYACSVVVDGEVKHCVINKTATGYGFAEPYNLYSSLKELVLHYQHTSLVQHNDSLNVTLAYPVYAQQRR

BTK = target: T7, BTK (Homo sapiens, UniProt Q06187); assay: Off-chip Mobility Shift Assay, kinase inhibition; type: biochemical; conditions: recombinant BTK; for inhibition at 0.001 µM: at 1 nM; for inhibition at 0.01 µM: at 10 nM
T7 construct: purchased Carna Biosciences, Inc
T7 sequence (Q06187 whole entry): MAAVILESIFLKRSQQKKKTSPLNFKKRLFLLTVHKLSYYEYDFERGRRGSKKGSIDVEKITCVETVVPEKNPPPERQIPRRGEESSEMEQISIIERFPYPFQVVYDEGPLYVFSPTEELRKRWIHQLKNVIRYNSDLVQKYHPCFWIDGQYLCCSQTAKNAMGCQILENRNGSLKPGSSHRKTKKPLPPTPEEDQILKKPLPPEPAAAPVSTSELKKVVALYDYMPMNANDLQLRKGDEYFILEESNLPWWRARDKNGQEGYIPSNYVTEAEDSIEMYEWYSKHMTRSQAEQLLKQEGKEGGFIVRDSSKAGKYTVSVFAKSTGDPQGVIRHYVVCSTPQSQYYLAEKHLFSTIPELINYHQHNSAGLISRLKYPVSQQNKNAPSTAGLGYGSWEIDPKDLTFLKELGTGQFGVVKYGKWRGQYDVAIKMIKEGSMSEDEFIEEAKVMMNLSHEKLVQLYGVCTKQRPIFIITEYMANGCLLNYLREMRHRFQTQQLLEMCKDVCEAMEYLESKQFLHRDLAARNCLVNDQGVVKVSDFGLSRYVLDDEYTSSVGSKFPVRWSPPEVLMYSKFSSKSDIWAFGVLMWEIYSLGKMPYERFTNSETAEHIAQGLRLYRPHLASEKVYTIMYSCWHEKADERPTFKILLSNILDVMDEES

[1] = Pharmacokinetics in Sprague-Dawley rats, 2-in-1 dosing; type: in vivo; conditions: rat; for V: intravenous 1 mg/kg
Protocol: Sprague-Dawley rats (approximate weight 275-300 g, N=3) were dosed intravenously at 5 mL/kg and orally at 10 mL/kg with the above dosing solutions. Blood samples were collected into tubes containing EDTA as the anticoagulant at 0, 0.25 (intravenous only), 0.5, 1, 2, 4, 8, 10, and 24 h post-dosing, and plasma samples were prepared by centrifugation. The plasma samples were mixed with 3× volumes of acetonitrile containing 100 nM reserpine as the internal standard, and centrifuged at 4000 RPM for 15 min. The supernatants were injected for LC/MS analysis which were carried out on a AB Sciex 4000 Q Trap LC/MS/MS system coupled with Shimadzu Prominence UFLCXR 20 series (including a CBM-20A controller, two LC-20ADXR solvent delivery units, SIL-20AC HT autosampler, CTO-20A column oven, and a SPD-20A UV detector). The samples were separated on a Phenomenex Columbus column (C18, 4 μm, 50×2 mm) eluted with two solvent systems: 2 mM ammonium acetate in water containing 0.1% formic acid (A) and methanol (B) at a linear gradient starting with 25% B. Electrospray ionization in positive mode was used to acquire LC/MS/MS data.

[2] = Metabolic stability in human liver microsomes; type: in vitro ADME; conditions: for In vitro t1/2: 1 μM, human liver microsomes 0.5 mg/mL, NADPH and UDPGA, 37° C.; for metabolic stability compared to dasatinib: human liver microsomes
Protocol: FIG. 1. Metabolic stability of compounds in human liver microsomal incubations. […] Concentrations at specified times were determined by LC-MS/MS.
The incubation reactions at various time points were quenched by adding 2× volumes of acetonitrile containing 100 nM reserpine. The quenched incubation samples were centrifuged at 4000 RPM for 10 min, and the supernatants injected for LC/MS/MS analysis. LC/MS/MS analysis was carried out on a AB Sciex 4000 Q Trap LC/MS/MS system coupled with Shimadzu Prominence UFLCXR 20 series (including a CBM-20A controller, two LC-20ADXR solvent delivery units, SIL-20AC HT autosampler, CTO-20A column oven, and a SPD-20A UV detector).

PDGFRβ = target: T8, PDGFRβ (Homo sapiens, UniProt P09619); assay: Off-chip Mobility Shift Assay, kinase inhibition; type: biochemical; conditions: at 10 nM; recombinant PDGFRβ; read-out: inhibition
T8 construct: purchased Carna Biosciences, Inc

YES = target: T9, YES (Homo sapiens, UniProt P07947); assay: Off-chip Mobility Shift Assay, kinase inhibition; type: biochemical; conditions: recombinant YES; for inhibition at 0.001 µM: at 1 nM; for inhibition at 0.01 µM: at 10 nM
T9 construct: purchased Carna Biosciences, Inc

SU-DHL-4 = assay: Cell inhibition assay (PrestoBlue, 48 h); type: cell-based; conditions: Homo sapiens, SU-DHL-4, 48 h, SU-DHL-4 diffuse large B-cell lymphoma cells, read-out: IC50, inhibition of growth
[3] = Table 2, co-dosed with compound IV
[4] = Table 3, co-dosed with compound X

T1 sequence (P51451 whole entry): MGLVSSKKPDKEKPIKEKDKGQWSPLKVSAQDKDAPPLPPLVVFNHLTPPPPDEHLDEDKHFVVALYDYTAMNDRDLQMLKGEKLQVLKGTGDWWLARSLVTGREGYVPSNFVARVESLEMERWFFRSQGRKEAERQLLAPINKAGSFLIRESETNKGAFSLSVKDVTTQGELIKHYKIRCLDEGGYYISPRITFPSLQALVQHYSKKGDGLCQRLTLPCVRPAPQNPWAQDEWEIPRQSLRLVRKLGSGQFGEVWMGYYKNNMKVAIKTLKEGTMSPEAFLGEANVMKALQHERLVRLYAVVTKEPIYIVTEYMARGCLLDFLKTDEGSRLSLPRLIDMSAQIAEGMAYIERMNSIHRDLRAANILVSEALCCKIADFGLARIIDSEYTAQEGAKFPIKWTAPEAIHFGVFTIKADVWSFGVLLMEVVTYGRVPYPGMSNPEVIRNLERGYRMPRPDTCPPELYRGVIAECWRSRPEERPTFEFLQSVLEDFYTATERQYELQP

Row | inhibition at 0.01 µM (BLK) [%] | inhibition at 0.001 µM (TEC) [%] | inhibition at 0.001 µM (BMX) [%] | inhibition at 0.01 µM (BMX) [%] | inhibition at 0.01 µM (FYN(isoform a)) [%] | inhibition at 0.01 µM (PDGFRα) [%] | inhibition at 0.01 µM (PIK3CA/PIK3R1) [%] | inhibition at 0.001 µM (BTK) [%] | inhibition at 0.01 µM (BTK) [%] | intravenous plasma clearance compared to dasatinib and compound III [1] | V [1, 3] [L/kg] | In vitro t1/2 [2] [min] | metabolic stability compared to dasatinib [2] | inhibition at 0.01 µM (PDGFRβ) [%] | inhibition at 0.001 µM (YES) [%] | inhibition at 0.01 µM (YES) [%] | IC50 (SU-DHL-4) [nM] | F, percent oral bioavailability ([1]; PO 5 mg/kg versus intravenous 1 mg/kg, AUCinf dose normalized, Table 3) [%] | V [1, 4] [L/kg] | Structure (SMILES) | intravenous volume of distribution compared to dasatinib and compound III [1]
1 | > 50 | > 50 | > 50 | > 50 | > 50 | > 50 | > 50 | > 50 | > 50 | much lower intravenous plasma clearance | 1 ± 0 | 88 | significantly greater stability | > 50 | > 50 | > 50 | < 20 |  |  | [2H]c1cc(C)c(NC(=O)c2cnc(Nc3cc(N4CC[C@H](O)C4)nc(C)n3)s2)c(Cl)c1 [Compound IV, N-(2-chloro-4-deutero-6-methylphenyl)-2-[[2-methyl-6-((S)-3-hydroxypyrrolidin-1-yl)pyrimidin-4-yl]amino]thiazole-5-carboxamide] | significantly lower intravenous volume of distribution values
2 | > 50 | > 50 | > 50 | > 50 | > 50 | > 50 | > 50 | > 50 | > 50 | much lower intravenous plasma clearance | 1 ± 0 | 67 | significantly greater stability | > 50 | > 50 | > 50 | < 20 |  |  | [2H]c1cc(C)c(NC(=O)c2cnc(Nc3cc(N4CC[C@@H](O)C4)nc(C)n3)s2)c(Cl)c1 [Compound V, N-(2-chloro-4-deutero-6-methylphenyl)-2-[[2-methyl-6-((R)-3-hydroxypyrrolidin-1-yl)pyrimidin-4-yl]amino]thiazole-5-carboxamide] | significantly lower intravenous volume of distribution values
3 | > 50 | > 50 | > 50 | > 50 | > 50 | > 50 | > 50 | > 50 | > 50 | much lower intravenous plasma clearance |  | 87 | significantly greater stability | > 50 | > 50 | > 50 | < 20 | 18.9±2 | 1 ± 0 | Cc1nc(Nc2ncc(C(=O)Nc3c(C)cccc3Cl)s2)cc(N2CC[C@H](O)C2)n1 [Compound X, N-(2-chloro-6-methylphenyl)-2-[[2-methyl-6-((S)-3-hydroxypyrrolidin-1-yl)pyrimidin-4-yl]amino]thiazole-5-carboxamide] | significantly lower intravenous volume of distribution values
4 | > 50 | > 50 | > 50 | > 50 | > 50 | > 50 | > 50 | > 50 | > 50 | much lower intravenous plasma clearance |  | 59 | significantly greater stability | > 50 | > 50 | > 50 | < 20 |  | 1 ± 0 | Cc1nc(Nc2ncc(C(=O)Nc3c(C)cccc3Cl)s2)cc(N2CC[C@@H](O)C2)n1 [Compound XI, N-(2-chloro-6-methylphenyl)-2-[[2-methyl-6-((R)-3-hydroxypyrrolidin-1-yl)pyrimidin-4-yl]amino]thiazole-5-carboxamide] | significantly lower intravenous volume of distribution values
